Experiments:
Type in all cases: cell-based
E. coli BL21 = experiment: MIC against Gram-negative bacteria: E. coli BL21; settings: for MIC against E. coli BL21 / MIC (μg/mL) E. coli BL21 / MIC E. coli BL21: 5×10^5 CFU/mL
In short: (§1)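 Purified recombinant human EGF domain proteins are tested by broth dilution in LB against a 5×10^5 CFU/mL inoculum, with two-fold serial dilutions run in triplicate. Plates are incubated at 37° C with shaking, and the MIC is read as the lowest protein concentration without growth.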

Serratia marcescens = experiment: MIC against Gram-negative bacteria: Serratia marcescens; settings: for MIC against S. marcescens / MIC (μg/mL) S. marcescens / MIC S. marcescens: 5×10^5 CFU/mL
In short: as §1

Proteus mirabilis = experiment: MIC against Gram-negative bacteria: Proteus mirabilis; settings: for MIC against P. mirabilis / MIC (μg/mL) P. mirabilis / MIC P. mirabilis: 5×10^5 CFU/mL
In short: as §1

Klebsiella pneumonia = experiment: MIC against Gram-negative bacteria: Klebsiella pneumonia; settings: for MIC against K. pneumonia / MIC (μg/mL) K. pneumonia / MIC K. pneumonia: 5×10^5 CFU/mL
In short: as §1

E. coli DH5α = experiment: Antibacterial activity: MIC and growth curve against E. coli DH5α in 96-well plate; settings: minimal inhibitory concentration against E. coli DH5α; 96-well plate, 5×10^5 CFU/mL, 37° C., judged after 8 h
In short: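 MIC taken as lowest protein level with no bacterial growth, tracked by A600 every 30 min during 37 °C, 175 rpm culture. Two-fold protein series 50-12.5 μg/mL final, triplicate wells, against 5×10^5 CFU/mL of LB-washed mid-log cells.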

Citrobacter diversus = experiment: MIC against Gram-negative bacteria: Citrobacter diversus; settings: for MIC against C. diversus / MIC (μg/mL) C. diversus / MIC C. diversus: 5×10^5 CFU/mL
In short: as §1

Aeromonas hydrophila = experiment: MIC against Gram-negative bacteria: Aeromonas hydrophila; settings: for MIC against A. hydrophila / MIC (μg/mL) A. hydrophila / MIC A. hydrophila: 5×10^5 CFU/mL
In short: as §1

Pseudomonas aeruginosa = experiment: MIC against Gram-negative bacteria: Pseudomonas aeruginosa; settings: for MIC against P. aeruginosa / MIC (μg/mL) P. aeruginosa / MIC P. aeruginosa: 5×10^5 CFU/mL
In short: as §1

Moraxella catarrhalis = experiment: MIC against Gram-negative bacteria: Moraxella catarrhalis; settings: for MIC against M. catarrhalis / MIC (μg/mL) M. catarrhalis / MIC M. catarrhalis: 5×10^5 CFU/mL
In short: as §1

Enterobacter cloacae = experiment: MIC against Gram-negative bacteria: Enterobacter cloacae; settings: for MIC against E. cloacae / MIC (μg/mL) E. cloacae / MIC E. cloacae: 5×10^5 CFU/mL
In short: as §1

Proteus vulgaris = experiment: MIC against Gram-negative bacteria: Proteus vulgaris; settings: for MIC against P. vulgaris / MIC (μg/mL) P. vulgaris / MIC P. vulgaris: 5×10^5 CFU/mL
In short: as §1

[1] = E. coli BL21, 10 h cultivation at 37° C.
[2] = S. marcescens, 10 h cultivation at 37° C.
[3] = P. mirabilis, 10 h cultivation at 37° C.
[4] = K. pneumonia, 10 h cultivation at 37° C.
[5] = C. diversus, 10 h cultivation at 37° C.
[6] = A. hydrophila, 10 h cultivation at 37° C.
[7] = P. aeruginosa, 10 h cultivation at 37° C.
[8] = M. catarrhalis, 10 h cultivation at 37° C.
[9] = E. cloacae, 10 h cultivation at 37° C.
[10] = P. vulgaris, 10 h cultivation at 37° C.
[11] = E. coli BL21, 96-well plate, 37° C., 10 h
[12] = Serratia marcescens, 96-well plate, 37° C., 10 h
[13] = Proteus mirabilis, 96-well plate, 37° C., 10 h
[14] = Klebsiella pneumonia, 96-well plate, 37° C., 10 h
[15] = Citrobacter diversus, 96-well plate, 37° C., 10 h
[16] = Aeromonas hydrophila, 96-well plate, 37° C., 10 h
[17] = Pseudomonas aeruginosa, 96-well plate, 37° C., 10 h
[18] = Moraxella catarrhalis, 96-well plate, 37° C., 10 h
[19] = Enterobacter cloacae, 96-well plate, 37° C., 10 h
[20] = Proteus vulgaris, 96-well plate, 37° C., 10 h
[21] = 10 h cultivation at 37° C., two-fold serial dilution

PRT897 (DPNPCLSTPCKNAGTCHVVDRRGVADYACSCALGFSGPLCL; listed as Homo sapiens)
12.5 µg/mL: MIC (Citrobacter diversus; [5]) | MIC (Pseudomonas aeruginosa; [7]) | MIC (Enterobacter cloacae; [9]) | MIC (Proteus vulgaris; [10])
50 µg/mL: MIC (Klebsiella pneumonia; [4]) | MIC (E. coli DH5α) | MIC (Aeromonas hydrophila; [6]) | MIC (Moraxella catarrhalis; [8])
25 µg/mL: MIC (E. coli BL21; [1]) | MIC (Serratia marcescens; [2]) | MIC (Proteus mirabilis; [3])

PRT1324 (PITSCLEQTGKCHPLASCQSTSSGVWSCVCQEGYEGDGFL; listed as Homo sapiens)
25 µg/mL: MIC against E. coli BL21 (E. coli BL21; [11]) | MIC against S. marcescens (Serratia marcescens; [12]) | MIC against P. mirabilis (Proteus mirabilis; [13]) | MIC against K. pneumonia (Klebsiella pneumonia; [14]) | MIC against C. diversus (Citrobacter diversus; [15])
50 µg/mL: MIC against A. hydrophila (Aeromonas hydrophila; [16]) | MIC against P. aeruginosa (Pseudomonas aeruginosa; [17])
12.5 µg/mL: MIC (E. coli DH5α) | MIC against M. catarrhalis (Moraxella catarrhalis; [18]) | MIC against E. cloacae (Enterobacter cloacae; [19]) | MIC against P. vulgaris (Proteus vulgaris; [20])

PRT71 (VDACHLNPCENMGACVRSPGSPQGYVCECGPSHYGPYCE; listed as Homo sapiens)
50 µg/mL: MIC (E. coli DH5α) | MIC (μg/mL) M. catarrhalis (Moraxella catarrhalis; [18]) | MIC (μg/mL) E. cloacae (Enterobacter cloacae; [19])
25 µg/mL: MIC (μg/mL) E. coli BL21 (E. coli BL21; [11]) | MIC (μg/mL) K. pneumonia (Klebsiella pneumonia; [14]) | MIC (μg/mL) A. hydrophila (Aeromonas hydrophila; [16])
12.5 µg/mL: MIC (μg/mL) S. marcescens (Serratia marcescens; [12]) | MIC (μg/mL) P. mirabilis (Proteus mirabilis; [13]) | MIC (μg/mL) C. diversus (Citrobacter diversus; [15]) | MIC (μg/mL) P. aeruginosa (Pseudomonas aeruginosa; [17]) | MIC (μg/mL) P. vulgaris (Proteus vulgaris; [20])

PRT1471 (GKNWCEEDMENGGCEYLCLPAPQINDHSPKYTCSCPSGYNVEENGRDCQ; listed as Homo sapiens)
12.5 µg/mL: MIC against K. pneumonia (Klebsiella pneumonia; Klebsiella pneumonia, 10 h cultivation at 37° C.) | MIC (E. coli DH5α)
50 µg/mL: MIC against C. diversus (Citrobacter diversus; Citrobacter diversus, 10 h cultivation at 37° C.) | MIC against P. aeruginosa (Pseudomonas aeruginosa; Pseudomonas aeruginosa, 10 h cultivation at 37° C.) | MIC against E. cloacae (Enterobacter cloacae; Enterobacter cloacae, 10 h cultivation at 37° C.) | MIC against P. vulgaris (Proteus vulgaris; Proteus vulgaris, 10 h cultivation at 37° C.)
25 µg/mL: MIC against E. coli BL21 (E. coli BL21; [1]) | MIC against S. marcescens (Serratia marcescens; Serratia marcescens, 10 h cultivation at 37° C.) | MIC against P. mirabilis (Proteus mirabilis; Proteus mirabilis, 10 h cultivation at 37° C.) | MIC against A. hydrophila (Aeromonas hydrophila; Aeromonas hydrophila, 10 h cultivation at 37° C.) | MIC against M. catarrhalis (Moraxella catarrhalis; Moraxella catarrhalis, 10 h cultivation at 37° C.)

PRT1250 (FGARCDRYCQCFRGRCHPVDGTCACEPGYRGKYCR; listed as Homo sapiens)
50 µg/mL: MIC against E. coli BL21 (E. coli BL21; [11]) | MIC against C. diversus (Citrobacter diversus; [15]) | MIC against E. cloacae (Enterobacter cloacae; [19]) | MIC against P. vulgaris (Proteus vulgaris; [20])
25 µg/mL: MIC against S. marcescens (Serratia marcescens; [12]) | MIC against P. mirabilis (Proteus mirabilis; [13]) | MIC against K. pneumonia (Klebsiella pneumonia; [14])
12.5 µg/mL: MIC (E. coli DH5α) | MIC against A. hydrophila (Aeromonas hydrophila; [16]) | MIC against P. aeruginosa (Pseudomonas aeruginosa; [17]) | MIC against M. catarrhalis (Moraxella catarrhalis; [18])

PRT1153 (TVSTCDPEHDPPHHCSRGATCISLPHGYTCFCPLGTTGIYCE; listed as Homo sapiens)
25 µg/mL: MIC P. mirabilis (Proteus mirabilis; [21]) | MIC C. diversus (Citrobacter diversus; [21])
12.5 µg/mL: MIC S. marcescens (Serratia marcescens; [21]) | MIC (E. coli DH5α) | MIC P. aeruginosa (Pseudomonas aeruginosa; [21]) | MIC M. catarrhalis (Moraxella catarrhalis; [21]) | MIC E. cloacae (Enterobacter cloacae; [21])
50 µg/mL: MIC E. coli BL21 (E. coli BL21; [21]) | MIC K. pneumonia (Klebsiella pneumonia; [21]) | MIC A. hydrophila (Aeromonas hydrophila; [21]) | MIC P. vulgaris (Proteus vulgaris; [21])

PRT658 (DVNECELMLAVCGAALCENVEGSFLCLCASDLEEYDAQEGHCR; listed as Homo sapiens)
25 µg/mL: MIC E. coli BL21 (E. coli BL21; 96-well plate, 37° C., 10 h) | MIC P. mirabilis (Proteus mirabilis; 96-well plate, 37° C., 10 h) | MIC K. pneumonia (Klebsiella pneumonia; 96-well plate, 37° C., 10 h) | MIC A. hydrophila (Aeromonas hydrophila; 96-well plate, 37° C., 10 h)
50 µg/mL: MIC C. diversus (Citrobacter diversus; 96-well plate, 37° C., 10 h) | MIC P. aeruginosa (Pseudomonas aeruginosa; 96-well plate, 37° C., 10 h) | MIC P. vulgaris (Proteus vulgaris; 96-well plate, 37° C., 10 h)
12.5 µg/mL: MIC S. marcescens (Serratia marcescens; 96-well plate, 37° C., 10 h) | MIC (E. coli DH5α) | MIC M. catarrhalis (Moraxella catarrhalis; 96-well plate, 37° C., 10 h) | MIC E. cloacae (Enterobacter cloacae; 96-well plate, 37° C., 10 h)

PRT236 (TKTSCAKCPPNASCVNNTHCTCNHGYTSGSGQKLFTFPLETCN; listed as Homo sapiens)
100 µg/mL: MIC (μg/mL) P. aeruginosa (Pseudomonas aeruginosa; [7])
25 µg/mL: MIC (μg/mL) A. hydrophila (Aeromonas hydrophila; [6]) | MIC (μg/mL) M. catarrhalis (Moraxella catarrhalis; [8]) | MIC (μg/mL) P. vulgaris (Proteus vulgaris; [10])
12.5 µg/mL: MIC (μg/mL) E. coli BL21 (E. coli BL21; [1]) | MIC (μg/mL) S. marcescens (Serratia marcescens; [2]) | MIC (μg/mL) P. mirabilis (Proteus mirabilis; [3]) | MIC (μg/mL) K. pneumonia (Klebsiella pneumonia; [4]) | MIC (E. coli DH5α) | MIC (μg/mL) C. diversus (Citrobacter diversus; [5]) | MIC (μg/mL) E. cloacae (Enterobacter cloacae; [9])

PRT676 (DINECAMPGVCRHGDCLNNPGSYRCVCPPGHSLGPSRTQCI; listed as Homo sapiens)
25 µg/mL: MIC (E. coli DH5α) | MIC M. catarrhalis (Moraxella catarrhalis; 96-well plate, 37° C., 10 h) | MIC E. cloacae (Enterobacter cloacae; 96-well plate, 37° C., 10 h)
12.5 µg/mL: MIC S. marcescens (Serratia marcescens; 96-well plate, 37° C., 10 h) | MIC P. mirabilis (Proteus mirabilis; 96-well plate, 37° C., 10 h) | MIC A. hydrophila (Aeromonas hydrophila; 96-well plate, 37° C., 10 h) | MIC P. aeruginosa (Pseudomonas aeruginosa; 96-well plate, 37° C., 10 h)
50 µg/mL: MIC E. coli BL21 (E. coli BL21; 96-well plate, 37° C., 10 h) | MIC K. pneumonia (Klebsiella pneumonia; 96-well plate, 37° C., 10 h) | MIC C. diversus (Citrobacter diversus; 96-well plate, 37° C., 10 h) | MIC P. vulgaris (Proteus vulgaris; 96-well plate, 37° C., 10 h)

PRT619 (CNCQGGGACDPDTGDCYSGDENPDIECADCPIGFYNDPHDPRSCKP; listed as Homo sapiens)
25 µg/mL: MIC E. coli BL21 (E. coli BL21; 96-well plate, 37° C., 10 h) | MIC K. pneumonia (Klebsiella pneumonia; 96-well plate, 37° C., 10 h) | MIC A. hydrophila (Aeromonas hydrophila; 96-well plate, 37° C., 10 h) | MIC M. catarrhalis (Moraxella catarrhalis; 96-well plate, 37° C., 10 h) | MIC P. vulgaris (Proteus vulgaris; 96-well plate, 37° C., 10 h)
50 µg/mL: MIC S. marcescens (Serratia marcescens; 96-well plate, 37° C., 10 h) | MIC C. diversus (Citrobacter diversus; 96-well plate, 37° C., 10 h) | MIC P. aeruginosa (Pseudomonas aeruginosa; 96-well plate, 37° C., 10 h)
12.5 µg/mL: MIC P. mirabilis (Proteus mirabilis; 96-well plate, 37° C., 10 h) | MIC (E. coli DH5α) | MIC E. cloacae (Enterobacter cloacae; 96-well plate, 37° C., 10 h)

Reference: US9833497B2, “Human originated EGF domain proteins and use of the same” (CHENGDU SOURCEBIO LIMITED-LIABILITY COMPANY, priority 2013, dated 2017)
